Patent US11553713B2, “Polyalcohol, carbohydrate, nucleobase and nucleotide compositions and uses thereof” (Chunbo Zhang, priority 2015, dated 2023)

What was measured:
female mosquitoes [1] = test: Efficacy by ingestion: feeder test in 6-liter cage, death rate of female mosquitoes; assay type: in vivo; conditions: for Death Rate / Death Rate within 24 hrs after treatment removed / Death Rate within 2 days after treatment removed / Death Rate within 3 days after treatment removed / Death Rate within 4 days after treatment removed: 10% sugar in CPDA, 24 hrs; for timing of death after ingestion (“delayed” death): after treatment was removed
Source text: Female mosquitoes were used in the experiment because only female mosquitoes bite humans and animals and transmit infectious diseases.
(2R)-3-fluoropropane-1,2-diol (rFOH) was used as the active agent at various concentrations. A sugar feeder containing 10% sucrose, which is a regular mosquito feeder in a laboratory setting, was used as a regular food source in free choice studies. A free choice study allows the pests to select which feeder to feed on when given two or more choices.
In a two-choice test, a 6-liter cage was supplied with two feeders, one contained 5% rFOH and 10% sucrose in CPDA and the other one contained 10% sucrose without any rFOH or CPDA. 100 female mosquitoes were placed in the cage having the two feeders such that the mosquitoes chose freely which feeder to feed on. After 24 hours of feeding in the cage, over 80% of mosquitoes were dead. […] When the concentration of rFOH was reduced to 1% or 0.15%, its effectiveness remained the same. Over 80% of mosquitoes were dead due to 24 hours of feeding with rFOH.
Subsequent to 24 hours of feeding, rFOH feeder was removed from the cage and a regular sugar feeder (10% sucrose) was provided. In the next day, 5-20% of residual death was observed, indicating a delayed death after rFOH ingestion.
In a further study, mosquitoes were fasted for 24 hours before feeding to ensure that all mosquitoes have the capacity for food intake. […] Thus, fasting is not a cause of mosquito death during a series of experiments.
The experiments determined that 0.1% rFOH was sufficient to achieve 50% death (LD50) under various conditions. In one study, 100 mosquitoes were caged in a 6-liter space and fasted for 24 hours. Subsequently, the mosquitoes were fed on two feeders giving their free choices for 0.1% rFOH containing 10% sucrose in CPDA or 10% sucrose without rFOH for 24 hours, resulting in 43% death. In a parallel study in which the cage was supplied with a single feeder, the 0.1% rFOH feeder containing 10% sucrose in CPDA, which caused 44% of death after 24 hours of feeding.
Similar experiments as disclosed above were performed with various rFOH concentrations under various conditions. The rFOH composition contained 10% sugar in CPDA solution unless specified otherwise.
Similar experiments as disclosed above were performed on female mosquitoes to determine LD50. The rFOH composition contained 10% sugar in CPDA solution unless specified otherwise.
(§1) Similar experiments as disclosed above were performed on female mosquitoes using different active agents at various concentrations. The active agent composition contained 10% sugar in CPDA solution unless specified otherwise.

Stability of FOH = assay type: physicochemical; conditions: normal temperature and pressure
Experimental: In some embodiments, 3-fluoropropane-1,2-diol (FOH) (R^1═R^2=R^3═R^5═H, n=2, m=0 in formula I) is exemplified as an active agent of the compositions disclosed herein. FOH has two enantiomeric isomers (2r)-3-fluoropropane-1,2-diol (rFOH) and (2s)-3-fluoropropane-1,2-diol (sFOH). FOH is a nonvolatile chemical having a boiling point of 205.4° C. at 760 mm Hg, a flash point of 87.2° C., and a density of 1.192 g/cm^3. FOH is stable under normal temperature and pressure. The chemical synthesis of FOH is known in the art (Dummel et al., J. Med. Chem. 12(2): 347 (1969)). The chemical structure of FOH, representing both rFOH and sFOH, is shown below: […]

female mosquitoes [2] = test: Membrane feeding test, death rate of female mosquitoes; assay type: in vivo; conditions: active agent at 1%; 18 hrs fasting; membrane feeding for 1 hour and 45 minutes before sugar feeder provided
Experimental: as §1
This is because membrane feeding provides only a small space accessible to a limited number of mosquitoes for feeding.

[3] = tested on: Methicillin/oxacillin resistant Staphylococcus aureus (MRSA) strain (ATCC 43300); test: MIC test, broth microdilution (CLSI M07-A9); assay type: cell-based
Experimental: (§2) The effects of pesticides disclosed herein on various bacteria were tested by determining the minimal inhibitory concentration (MIC) of the pesticides. MIC of an antimicrobial agent is the lowest concentration of the antimicrobial agent that inhibits a given bacterial isolate from multiplying and producing visible growth in the test system. The MIC of rFOH and BrOH was determined in the laboratory by incubating a known quantity of bacteria with a series of dilutions of the active agents and comparing their effects with those of known antimicrobial agents. Table 6 lists the representative bacterial strains and the conditions in MIC tests. Antimicrobial tests of the active agents were conducted according to “Methods for Dilution Antimicrobial Susceptibility Tests for Bacteria That Grow Aerobically” by Clinical and Laboratory Standards Institute (CLSI) (CLSI document M07-A9, 2012). In the study, methicillin/oxacillin resistant Staphylococcus aureus (MRSA) strain (ATCC 43300) was routinely under screening with 4 ug/ml oxacillin. Escherishia coli DH5α was a nonpathogenic laboratory strain. […] When the DH5α/plasmid (DH5P) colony was used, the colony was maintained in the presence of 100 ug/ml ampicillin.
(§3) MIC tests were conducted in 96 well microtiter plates with a total volume of 150 ul broth in each well. The directly colony suspension method (CLSI document M07-A9, 2012) was applied to obtain MIC for antimicrobial tests of the active agents. After colonies were freshly incubated overnight, colonies were suspended in sterile water to adjust the inoculum to a turbidity equivalent to a 0.5 McFarland standard (corresponding to approximately 1.5×10^8 CFU/ml). Within 10 minutes, the inoculum was adjusted by dilution in broth to reach a final concentration of 5×10^5 CFU/ml. A series of various concentrations of the active agents were applied to determine the MIC. In the same microtiter plate, an internal standard formulated by a concentration series of standard antibiotic agent was incubated in parallels to allow for back-to-back comparison.

Escherishia coli DH5α = test: MIC test, broth microdilution (CLSI M07-A9); assay type: cell-based
Experimental: as §2, §3

[4] = tested on: Escherishia coli DH5α transformed with a pcDNA3 plasmid (DH5P); test: MIC test, broth microdilution (CLSI M07-A9); assay type: cell-based
Experimental: as §2, §3

[5] = active agent at 0.5%, not fasted, sugar feeder provided for free choice
[6] = active agent at 1%, 24 hrs fasting, sugar feeder not provided
[7] = active agent at 0.5%, 24 hrs fasting, sugar feeder not provided
[8] = active agent at 1.5%, 24 hrs fasting, sugar feeder not provided
[9] = internal standard in the same microtiter plate
[10] = Tryptic soy broth, 37° C. for 24 hrs, listed as BrOH

Compound: O=c1[nH]c(=O)n([C@H]2C[C@H](O)[C@@H](CO)O2)cc1F [2′-Deoxy-5-fluorouridine]
- Death Rate (female mosquitoes [1]; active agent at 2%, 24 hrs fasting, sugar feeder not provided): 24%

Compound: CC(C)(CO)CO [2,2-Dimethyl-1,3-propanediol]
- Death Rate (female mosquitoes [1]; active agent at 0.5%, 24 hrs fasting, sugar feeder provided for free choice): 10%

Compound: Nc1ccn([C@@H]2O[C@H](CO)[C@@H](O)C2(F)F)c(=O)n1 [Gemcitabine, reference compound]
- Death Rate within 24 hrs after treatment removed (female mosquitoes [1]; [5]): 3% within
- Death Rate within 2 days after treatment removed (female mosquitoes [1]; [5]): removed, 36%
- Death Rate within 3 days after treatment removed (female mosquitoes [1]; [5]): 66%

Compound: Nc1nc(F)nc2c1ncn2[C@@H]1O[C@H](CO)[C@@H](O)[C@H]1O [2-Fluoroadenosine]
- Death Rate within 24 hrs after treatment removed (female mosquitoes [1]; [6]): 22% within
- Death Rate within 2 days after treatment removed (female mosquitoes [1]; [6]): removed, 47%
- Death Rate within 3 days after treatment removed (female mosquitoes [1]; [6]): removed, 64%
- Death Rate within 4 days after treatment removed (female mosquitoes [1]; [6]): 75-80% within
- Death Rate within 4 days after treatment removed (female mosquitoes [1]; active agent at 1%, 24 hrs fasting, sugar feeder not provided, listed as 2-fluoroadenosine): 75-80%
- timing of death after ingestion (“delayed” death) (female mosquitoes [1]): delayed

Compound: C[C@@H](Cl)C(=O)O [(R)-(+)-2-Chloropropionic acid]
- Death Rate (female mosquitoes [1]; [7]): 10%

Compound: CC(CO)CO [2-Methyl-1,3-propanediol]
- Death Rate (female mosquitoes [1]; [7]): 12%

Compound: OCC(CO)c1ccccc1 [2-Penyl-1,3-propanediol]
- Death Rate (female mosquitoes [1]; [8]): 61%

Compound: OC1CCCCC1O (stereo not drawn) [1,2-cyclohexanediol]
- Death Rate (female mosquitoes [1]; [7]): 22%

Compound: OCC(O)CF (stereo not drawn) [FOH, 3-fluoropropane-1,2-diol]
- stability (Stability of FOH): stable

Compound: OCC(O)CCl (stereo not drawn) [3-Chloro-1,2-propanediol]
- Death Rate (female mosquitoes [1]; active agent at 0.15%, 24 hrs fasting, sugar feeder not provided): >85%

Compound: OC[C@H]1O[C@@H](O)[C@H](O)[C@@H](O)[C@@H]1F [4-Deoxy-4-fluoro-β-D-glucopyranose]
- Death Rate in 2 hours (female mosquitoes [2]): 10% in 2
- Death Rate in 24 hours (female mosquitoes [2]): hours, 17%
- Death Rate in the first hour (female mosquitoes [2]): 2% in the

Compound: CC(C)(O)C(C)(C)O [2,3-Dimethylbutane-2,3-diol]
- Death Rate (female mosquitoes [1]; [8]): 53%

Compound: CO[C@@]1(NC(=O)Cc2cccs2)C(=O)N2C(C(=O)O)=C(COC(N)=O)CS[C@@H]21 [cefoxitin, reference compound]
- Comparable Effectiveness (standard antibiotic concentration as effective as 0.4% rFOH) [3, 9]: 48 µg/mL

Compound: OC[C@H](O)CF [sFOH, (2s)-3-fluoropropane-1,2-diol]
- Death Rate (female mosquitoes [1]; active agent at 0.3%, 24 hrs fasting, sugar feeder not provided, death found for a week after treatment was removed): 42-68%
- Death Rate (female mosquitoes [1]; active agent at 0.5%, 24 hrs fasting, sugar feeder not provided, death found for a week after treatment was removed): >85% death
- timing of death after ingestion (“delayed” death) (female mosquitoes [1]): Delayed

Compound: OCC(O)CBr (stereo not drawn) [3-Bromopropane-1,2-diol]
- Death Rate (female mosquitoes [1]; active agent at 0.15%, 24 hrs fasting, sugar feeder provided for free choice, death found for a week after treatment was removed): 30-52%
- Death Rate (female mosquitoes [1]; active agent at 0.2%, 24 hrs fasting, sugar feeder not provided, death found for a week after treatment was removed): >85% death
- timing of death after ingestion (“delayed” death) (female mosquitoes [1]): Delayed
- MIC (Escherishia coli DH5α; [10]): 0.025%
- MIC [4, 10]: 0.2%
- MIC ([3]; Mueller Hinton broth with 2% NaCl and 50 ug/ml CaCl2, 35° C. for 24 hrs, listed as BrOH): 2.5%

Compound: OCC1(CO)CCC1 [1,1-Bis(hydroxymethyl)cyclobutane]
- Death Rate (female mosquitoes [1]; [7]): 50%

Compound: NC(CO)CO [2-Amino-1,3-propanediol]
- Death Rate (female mosquitoes [1]; [7]): 16%

Compound: Nc1nc(F)nc2nc[nH]c12 [2-Fluoroadenine]
- Death Rate (female mosquitoes [1]; active agent at 0.2%, 24 hrs fasting, sugar feeder provided for free choice): 30%

Compound: CC1(C)S[C@@H]2[C@H](NC(=O)[C@H](N)c3ccccc3)C(=O)N2[C@H]1C(=O)O [ampicillin, reference compound]
- Comparable Effectiveness (standard antibiotic concentration as effective as 0.4% rFOH) (Escherishia coli DH5α; [9]): 19 µg/mL
- Comparable Effectiveness (standard antibiotic concentration as effective as 0.4% rFOH) [4, 9]: 240 µg/mL
